Reference: paper PMC7031696 (Cell chemical biology, 2019)
Values after ≈ are worked out from the molar mass of the structure shown. Read-outs that look alike come from different tables or passages of the source.

Columns and labels:
[1] = tested on: Plasmodium falciparum 3D7-A10 parasites; experiment: Stage specificity assay (8-h exposure of synchronized stages, IC50^8h); type: cell-based; conditions: for IC50: Plasmodium falciparum
[2] = tested on: asynchronous 3D7-A10 parasite cultures; experiment: Standard 72-h exposure asexual blood stage susceptibility assay (IC50^72h); type: cell-based, Plasmodium falciparum; conditions: Plasmodium falciparum, 3D7, 72 h, read-out: Overall (72hr assay) Mean IC50 (IC50^72h)
[3] = tested on: 3D7-MR4 trophozoite parasite-infected RBCs; experiment: Metabolomic profiling (hydrophilic metabolite changes, UHPLC-MS); type: cell-based, Plasmodium falciparum
[4] = 1.5 h, 500 μM, pH 7.4

Cc1cc(Nc2ccc(OCc3ccccc3)cc2)nc2cc(O)ccc12 [MMV007181]
Ratio lowest IC50 8hr/IC50 72hr ([1]; 3D7-A10): 3.0 | killing in stage specificity assay ([1]; 8-h exposures, survival curves): incomplete killing at all asexual blood stages | IC50 ([1]; 3D7, read-out: Early rings IC50 (IC50^8h), 8-h exposure 0–8 hr, bound given in μM): > 25 µM | IC50 ([1]; 3D7, read-out: Early trophozoites Mean IC50 (IC50^8h), 8-h exposure 16–24 hr, 3D7-A10, survival at 60 h): 0.253 µM | IC50 ([1]; 3D7, read-out: Late rings IC50 (IC50^8h), 8-h exposure 8–16 hr, bound given in μM): > 25 µM | IC50 ([1]; 3D7, read-out: Late trophozoites Mean IC50 (IC50^8h), 8-h exposure 24–32 hr, 3D7-A10, survival at 60 h): 0.274 µM | IC50 ([1]; 3D7, read-out: Schizonts Mean IC50 (IC50^8h), 8-h exposure 32–40 hr, 3D7-A10, survival at 60 h): 0.57 µM | Stage of peak activity (Figure 6) ([1]; period when the parasite was most susceptible (lowest IC50^8h)): trophozoites | Peak Activity (Table S1) ([1]; stage(s) with the lowest IC50^8h): Trophs | IC50 [2]: 84.9 nM | peptide levels (hemoglobin catabolism signature) ([3]; 10 × IC50^72h, 2.5 hr, trophozoites): decreased peptide levels | Log2(fold changes) 3-phosphoglycerate ([3]; metabolite 3-phosphoglycerate, log2 fold change): -0.1714 | Log2(fold changes) 4-Pyridoxic acid ([3]; metabolite 4-Pyridoxic acid, log2 fold change): -0.2247 | Log2(fold changes) 4-aminobutyrate ([3]; metabolite 4-aminobutyrate, log2 fold change): -0.0986 | Log2(fold changes) 4-phosphopantetheine ([3]; metabolite 4-phosphopantetheine, log2 fold change): 0.6961 | Log2(fold changes) 4-phosphopantothenate ([3]; metabolite 4-phosphopantothenate, log2 fold change): -0.6638 | Log2(fold changes) 5-aminopentanoic acid ([3]; metabolite 5-aminopentanoic acid, log2 fold change): -0.2294 | Log2(fold changes) 5-methyl-THF ([3]; metabolite 5-methyl-THF, log2 fold change): 0.0000 | Log2(fold changes) 5-phosphoribosyl-1-pyrophosphate ([3]; metabolite 5-phosphoribosyl-1-pyrophosphate, log2 fold change): 0.0000 | Log2(fold changes) 6-phospho-D-gluconate ([3]; metabolite 6-phospho-D-gluconate, log2 fold change): -0.1453 | Log2(fold change) HVDD ([3]; metabolite HVDD): -4.4739 | Log2(fold change) Hydroxyisocaproic acid ([3]; metabolite Hydroxyisocaproic acid): 0.0000 | Log2(fold change) IDP ([3]; metabolite IDP): -0.0045 | Log2(fold change) IMP ([3]; metabolite IMP): -0.1201 | Log2(fold change) Inositol ([3]; metabolite Inositol): 0.0000 | Log2(fold change) Isopentyl-PP ([3]; metabolite Isopentyl-PP): -0.4346 | Log2(fold change) L-arginino-succinate ([3]; metabolite L-arginino-succinate): -0.6665 | Log2(fold change) LD ([3]; metabolite LD): -0.1484 | Log2(fold change) Myristoyl/tetradecanoyl-CoA ([3]; metabolite Myristoyl/tetradecanoyl-CoA): 0.0000 | Log2(fold change) N-Acetyl-L-alanine ([3]; metabolite N-Acetyl-L-alanine): -0.3632 | Log2(fold change) N-acetyl-L-ornithine ([3]; metabolite N-acetyl-L-ornithine): -2.0310 | Log2(fold change) N-acetyl-glucosamine-1/6-phosphate ([3]; metabolite N-acetyl-glucosamine-1/6-phosphate): -0.0060 | Log2(fold change) N-acetyl-glutamate ([3]; metabolite N-acetyl-glutamate): 0.1987 | Log2(fold change) N-acetyl-glutamine ([3]; metabolite N-acetyl-glutamine): 0.1663 | Log2(fold change) N-carbamoyl-L-aspartate ([3]; metabolite N-carbamoyl-L-aspartate): -0.1286 | Log2(fold change) NAD+ ([3]; metabolite NAD+): -0.1335 | Log2(fold change) NADH ([3]; metabolite NADH): 2.9716 | Log2(fold change) NADP+ ([3]; metabolite NADP+): -0.2177 | Log2(fold change) NADPH ([3]; metabolite NADPH): 2.7260 | Log2(fold change) O-acetyl-L-serine ([3]; metabolite O-acetyl-L-serine): -0.0650 | Log2(fold change) Octoluse 8/1P ([3]; metabolite Octoluse 8/1P): -0.2583 | Log2(fold change) Octoluse Bisphosphate ([3]; metabolite Octoluse Bisphosphate): -0.7020 | Log2(fold change) PD ([3]; metabolite PD): -3.3017 | Log2(fold change) PE ([3]; metabolite PE): -2.9801 | Log2(fold change) PEE ([3]; metabolite PEE): -2.9268 | Log2(fold change) PEEK ([3]; metabolite PEEK): -4.7351 | Log2(fold change) PVNF ([3]; metabolite PVNF): -4.5493 | Log2(fold change) Pyroglutamic acid ([3]; metabolite Pyroglutamic acid): 0.2482 | Log2(fold change) Pyrophosphate ([3]; metabolite Pyrophosphate): 0.0000 | Log2(fold change) Ribose-5-phosphate ([3]; metabolite Ribose-5-phosphate): -0.4059 | Log2(fold change) S-adenosyl-L-homocysteine ([3]; metabolite S-adenosyl-L-homocysteine): -0.1192 | Log2(fold change) S-adenosyl-L-methioninamine ([3]; metabolite S-adenosyl-L-methioninamine): -3.2130 | Log2(fold change) S-adenosyl-L-methionine ([3]; metabolite S-adenosyl-L-methionine): -0.1206 | Log2(fold change) S-methyl-5'-thioadenosine ([3]; metabolite S-methyl-5'-thioadenosine): 0.4702 | Log2(fold change) SD ([3]; metabolite SD): -0.6167 | Log2(fold change) SDL ([3]; metabolite SDL): 0.0000 | Log2(fold change) SID ([3]; metabolite SID): -0.9911 | Log2(fold change) Sedoheptulose bisphosphate ([3]; metabolite Sedoheptulose bisphosphate): -0.4907 | Log2(fold change) Thiamine pyrophosphate ([3]; metabolite Thiamine pyrophosphate): -0.0717 | Log2(fold changes) UDP-D-glucose ([3]; metabolite UDP-D-glucose, log2 fold change): 0.0982 | Log2(fold changes) UDP-D-glucuronate ([3]; metabolite UDP-D-glucuronate, log2 fold change): -0.0548 | Log2(fold changes) UDP-N-acetyl-glucosamine ([3]; metabolite UDP-N-acetyl-glucosamine, log2 fold change): -0.0365 | Log2(fold changes) UDP ([3]; metabolite UDP, log2 fold change): -0.2952 | Log2(fold changes) UMP ([3]; metabolite UMP, log2 fold change): -0.1123 | Log2(fold changes) UTP ([3]; metabolite UTP, log2 fold change): -0.0747 | Log2(fold change) hydroxyphenylpyruvate ([3]; metabolite hydroxyphenylpyruvate): 0.0000 | Log2(fold change) hydroxyproline/Aminolevulinate ([3]; metabolite hydroxyproline/Aminolevulinate): -0.1078 | Log2(fold change) hypoxanthine ([3]; metabolite hypoxanthine): 0.1087 | Log2(fold change) indole ([3]; metabolite indole): -0.0870 | Log2(fold change) inosine ([3]; metabolite inosine): -0.1121 | Log2(fold change) isoleucine ([3]; metabolite isoleucine): 0.0000 | Log2(fold change) lactate ([3]; metabolite lactate): -0.3282 | Log2(fold change) leucine ([3]; metabolite leucine): -0.3120 | Log2(fold change) lysine ([3]; metabolite lysine): -2.3197 | Log2(fold change) malate ([3]; metabolite malate): -0.7445 | Log2(fold change) maleic acid ([3]; metabolite maleic acid): -0.7914 | Log2(fold change) methionine ([3]; metabolite methionine): 0.1152 | Log2(fold change) myo-inositol ([3]; metabolite myo-inositol): -0.3555 | Log2(fold change) nicotinamide mononucleotide ([3]; metabolite nicotinamide mononucleotide): -0.2883 | Log2(fold change) nicotinate ([3]; metabolite nicotinate): 0.1126 | Log2(fold change) ornithine ([3]; metabolite ornithine): -0.1929 | Log2(fold change) orotate ([3]; metabolite orotate): -0.4250 | Log2(fold change) orotidine-5'-phosphate ([3]; metabolite orotidine-5'-phosphate): -1.5378 | Log2(fold change) oxaloacetate ([3]; metabolite oxaloacetate): -0.5706 | Log2(fold change) p-aminobenzoate ([3]; metabolite p-aminobenzoate): 0.0000 | Log2(fold change) p-hydroxybenzoate ([3]; metabolite p-hydroxybenzoate): 0.0981 | Log2(fold change) pantothenate ([3]; metabolite pantothenate): 0.1598 | Log2(fold change) phenylalanine ([3]; metabolite phenylalanine): -0.4038 | Log2(fold change) phenylpyruvate ([3]; metabolite phenylpyruvate): 0.0000 | Log2(fold change) phosphoenolpyruvate ([3]; metabolite phosphoenolpyruvate): 0.0294 | Log2(fold change) prephenate ([3]; metabolite prephenate): -0.1912 | Log2(fold change) proline ([3]; metabolite proline): -0.4365 | Log2(fold change) pyridoxine ([3]; metabolite pyridoxine): -0.1437 | Log2(fold change) pyruvate ([3]; metabolite pyruvate): -0.7096 | Log2(fold change) riboflavin ([3]; metabolite riboflavin): 0.3011 | Log2(fold change) ribose ([3]; metabolite ribose): -0.0087 | Log2(fold change) ribose-phosphate ([3]; metabolite ribose-phosphate): -0.7988 | Log2(fold change) ribulose-5-phosphate ([3]; metabolite ribulose-5-phosphate): -0.4319 | Log2(fold change) serine ([3]; metabolite serine): -0.2012 | Log2(fold change) sn-glycerol-3-phosphate ([3]; metabolite sn-glycerol-3-phosphate): 0.0673 | Log2(fold change) succinate/Methylmalonic acid ([3]; metabolite succinate/Methylmalonic acid): -0.1908 | Log2(fold change) succinyl-CoA/methylmalonyl-CoA ([3]; metabolite succinyl-CoA/methylmalonyl-CoA): 0.0000 | Log2(fold change) taurine ([3]; metabolite taurine): 0.0434 | Log2(fold change) thiamine ([3]; metabolite thiamine): -0.2929 | Log2(fold change) threonine/homoserine ([3]; metabolite threonine/homoserine): -0.5619 | Log2(fold change) thymidine ([3]; metabolite thymidine): 0.0000 | Log2(fold changes) thymine ([3]; metabolite thymine, log2 fold change): 0.0000 | Log2(fold changes) trehalose-6-Phosphate ([3]; metabolite trehalose-6-Phosphate, log2 fold change): 0.0000 | Log2(fold changes) tryptophan ([3]; metabolite tryptophan, log2 fold change): -0.4056 | Log2(fold changes) tyrosine ([3]; metabolite tyrosine, log2 fold change): -0.2656 | Log2(fold changes) uridine ([3]; metabolite uridine, log2 fold change): 0.0000 | Ratio fil./std. (absorbance filtrate/standard) [4]: 0.69 | solubility at 1.5 h (physchem; pH 7.4): > 100 µM | solubility at 1.5 h (physchem; pH 7.4, aqueous buffer, kinetic from dmso stock): 100 to 500 µM (≈ 35.6 to 178 µg/mL)
